How the values were obtained:
D. melanogaster = D. melanogaster survival (lifespan) assay; assay type: in vivo
Experimental: Survival assays were conducted independently with adult D. melanogaster in two laboratories. In the first laboratory, all trials used an yw marked wild-type strain. Larvae were reared on standard cornmeal-sugar-yeast (CSY) agar diet (cornmeal 5%, sucrose 10.5%, SAF yeast 2%, and agar 0.7%). Newly eclosed adults were placed in 1 L demography cages with approximately 75 males and 75 females. Three to four replicate 1 L demography cages were used for each treatment group in each trial. Every two days, dead flies were removed and scored, and food vials were replenished. Food vials contained cornmeal-sugar-yeast diet with SAF yeast as either 2% or 3% by weight. Test compounds in 100 μl of EtOH (or blank EtOH in controls) were mixed into melted aliquots of the adult food media to make a final concentration of 0, 10 or 100 μM. Fresh stock solutions and adult media were prepared weekly. In the second laboratory, lifespan trials were conducted with the wild type strain Canton-S, dSir2^4.5 and dSir2^5.26 (S. Smolik, University of Oregon), dSir2^17 (S. Astrom, Stockholm University, Sweden), and dSir2^KG00871 (Drosophila Stock Center, Bloomington, Ind.). Larvae for all tests were reared on standard cornmeal-sugar-yeast diet. Newly eclosed adults were incubated in plastic shell vials containing 5 ml of 15% sugar-yeast diet (15% SY) or 5% sugar-yeast (5% SY) diet (15% SY: 15% yeast, 15% sucrose, 2% agar; 5% SY: 5% yeast, 5% sucrose, 2% agar as per Ref.^20). In all trials, ˜20 males with ˜20 females were placed into each of 10 vials/treatment group. Every two days, flies were passed into new vials and dead flies were counted. […] Final compound concentrations were 0, 10, 100 or 200 μM. Fresh stock solution and adult media was prepared weekly.

lysine 382 of p53 = assay: p53 K382 acetylation Western blot in UV-irradiated U2OS cells; assay type: cell-based, human
Experimental: FdL (200 μM) is added to growth media and cells incubated for 1-3 hours to allow FdL to enter the cells and the lysine-deacetylated product (deAc-FdL) to accumulate intracellularly. Cells are lysed with detergent in the presence of 1 μM TSA, 1 mM nicotinamide. […] Cells were grown adherently in DMEM/10% FCS and treated for 1 hour with 200 μM FdL, 1 μM TSA and either vehicle (0.5% final DMSO, Control) or 500 μM of the indicated compound. Intracellular accumulation of deAc-FdL was then determined as described briefly in a. […] Lysates were prepared and analyzed as above.
Whole cell extracts were prepared by lysing cells in buffer containing 150 mM NaCl, 1 mM MgCl2, 10% glycerol, 1% NP40, 1 mM DTT and anti-protease cocktail (Roche).

SMILES: Oc1ccc(/C=C/c2cc(O)cc(O)c2)cc1 [Resveratrol, 3,5,4′-Trihydroxy-trans-stilbene]
- Lifespan increase (D. melanogaster; Canton-S/dSir2 KG0087, maximum): up to 17%
- Lifespan extension (in words) (D. melanogaster; dSir2 4.5/5.26 (no functional dSir2) or dSir2 17/KG00871 (severely decreased), 100 μM): failed to extend lifespan
- Increase of longevity (in words) (D. melanogaster; flies homozygous for a hypomorphic dSir2 allele): small but statistically significant amount
- Longevity under restricted diet (D. melanogaster; restricted diet): neither resveratrol nor fisetin further increased longevity
- Lifespan extension (D. melanogaster; wild type strains, males and females, independent tests, maximum): up to 29%
- Level of Ac-K382 (lysine 382 of p53; 0.5 μM resveratrol, 4 hours pre-treatment, UV radiation): marked decrease
- Level of Ac-K382 (lysine 382 of p53; higher concentrations of resveratrol (>50 μM)): reversed
